Like-named read-outs stand apart in the source and are kept apart here. Ends that are not written are not given here.
Q: What does the source list for `CC[C@H](C)[C@H](NC(=O)[C@H](CCCNC(=N)N)NC(=O)[C@H](CCCNC(=N)N)NC(=O)[C@@H](N)CSC1CC(=O)N(CC2CCC(C(=O)N(C)[C@H](CC(C)C)C(=O)N[C@H]3C(=O)N[C@@H](CC(N)=O)C(=O)N[C@H]4C(=O)N[C@H]5C(=O)N[C@H](C(=O)N[C@H](C(=O)O)c6cc(O)cc(O)c6-c6cc5ccc6O)[C@H](O)c5ccc(c(Cl)c5)Oc5cc4cc(c5O[C@@H]4O[C@H](CO)[C@@H](O)[C@H](O)[C@H]4O[C@H]4C[C@](C)(N)[C@H](O)[C@H](C)O4)Oc4ccc(cc4Cl)[C@H]3O)CC2)C1=O)C(=O)N[C@@H](CCCNC(=N)N)C(=O)N1CCC[C@H]1C(=O)N[C@@H](CCCNC(=N)N)C(=O)N1CCC[C@H]1C(=O)N1CCC[C@H]1C(=O)N[C@@H](CCCNC(=N)N)C(=O)N[C@@H](CC(C)C)C(=O)N1CCC[C@H]1C(=O)N[C@@H](CCCNC(=N)N)C(=O)N1CCC[C@H]1C(=O)N[C@@H](CCCNC(=N)N)C(=O)N1CCC[C@H]1C(=O)N[C@@H](CCCNC(=N)N)C(=O)N1CCC[C@H]1C(=O)O` (some centres unmarked) [Vm-Bac]?
A: MIC (VRSA 11; 11, 18 h): 18.75(4.76) µg mL^−1; MIC (S. aureus 15192; 15192, 18 h): 1.17(0.30) µg mL^−1; MIC (VRSA 52; 52, 18 h): 18.75(4.76) µg mL^−1; MIC (S. aureus ATCC29213; ATCC29213, 18 h): 2.34(0.59) µg mL^−1; MIC (P. aeruginosa ATCC27853; ATCC27853, 18 h): >100(>25.4) µg mL^−1; MIC (S. aureus 15772; 15772, 18 h): 2.34(0.59) µg mL^−1; MIC (S. typhimurium ATCC14028; ATCC14028, 18 h): 37.5(9.52) µg mL^−1; MIC (E. faecalis ATCC29212; ATCC29212, 18 h): 18.75(4.76) µg mL^−1; MIC (S. aureus CMCC26003; CMCC26003, 18 h): 0.78(0.20) µg mL^−1; MIC (MRSA ATCC43300; ATCC43300, 18 h): 2.34(0.59) µg mL^−1; MIC (K. pneumoniae 9883; 9883, 18 h): >100(>25.4) µg mL^−1; MIC (E. coli ATCC25922; ATCC25922, 18 h): 18.75(4.76) µg mL^−1; MIC (A. baumannii ATCC19606; ATCC19606, 18 h): 18.75(4.76) µg mL^−1

Q: How did the MIC (VRSA 11; 11, 18 h) turn out when `CC[C@H](C)[C@H](NC(=O)[C@@H](N)CSC1CC(=O)N(CC2CCC(C(=O)N(C)[C@H](CC(C)C)C(=O)N[C@H]3C(=O)N[C@@H](CC(N)=O)C(=O)N[C@H]4C(=O)N[C@H]5C(=O)N[C@H](C(=O)N[C@H](C(=O)O)c6cc(O)cc(O)c6-c6cc5ccc6O)[C@H](O)c5ccc(c(Cl)c5)Oc5cc4cc(c5O[C@@H]4O[C@H](CO)[C@@H](O)[C@H](O)[C@H]4O[C@H]4C[C@](C)(N)[C@H](O)[C@H](C)O4)Oc4ccc(cc4Cl)[C@H]3O)CC2)C1=O)C(=O)N[C@@H](CC(C)C)C(=O)N[C@@H](CCCNC(=N)N)C(=O)N[C@@H](Cc1c[nH]c2ccccc12)C(=O)N1CCC[C@H]1C(=O)N[C@@H](Cc1c[nH]c2ccccc12)C(=O)N[C@@H](Cc1c[nH]c2ccccc12)C(=O)N1CCC[C@H]1C(=O)N[C@@H](Cc1c[nH]c2ccccc12)C(=O)N[C@@H](CCCNC(=N)N)C(=O)N[C@@H](CCCNC(=N)N)C(=O)N[C@@H](CCCCN)C(N)=O` (some centres unmarked) [Vm-Omi] was run?
A: The MIC was 75(21.13) µg mL^−1.

Q: And the MIC (S. aureus 15192; 15192, 18 h)?
A: The MIC was 0.78(0.22) µg mL^−1.

Q: And the MIC (VRSA 52; 52, 18 h)?
A: Its MIC is 75(21.13) µg mL^−1.

Q: And the MIC (S. aureus ATCC29213; ATCC29213, 18 h)?
A: Its MIC is 1.17(0.33) µg mL^−1.

Q: What about the MIC (P. aeruginosa ATCC27853; ATCC27853, 18 h) of the same molecule?
A: Its MIC is >100(>28) µg mL^−1.

Q: And the MIC (S. aureus 15772; 15772, 18 h)?
A: The MIC was >100(>28) µg mL^−1.

Q: What about the MIC (S. typhimurium ATCC14028; ATCC14028, 18 h) of the same molecule?
A: Its MIC is >100(>28) µg mL^−1.

Q: What about the MIC (E. faecalis ATCC29212; ATCC29212, 18 h) of the same molecule?
A: The MIC was >100(>28) µg mL^−1.

Q: What about the MIC (S. aureus CMCC26003; CMCC26003, 18 h) of the same molecule?
A: The MIC was 0.78(0.22) µg mL^−1.

Q: And the MIC (MRSA ATCC43300; ATCC43300, 18 h)?
A: The MIC was 4.69(1.32) µg mL^−1.

Q: And the MIC (K. pneumoniae 9883; 9883, 18 h)?
A: The MIC was >100(>28) µg mL^−1.

Q: What about the MIC (E. coli ATCC25922; ATCC25922, 18 h) of the same molecule?
A: The MIC was >100(>28) µg mL^−1.

Q: And the MIC (A. baumannii ATCC19606; ATCC19606, 18 h)?
A: Its MIC is >100(>28) µg mL^−1.

Q: What does the source list for `CC(C)C[C@H](NC(=O)[C@H](Cc1ccc(O)cc1)NC(=O)[C@H](Cc1c[nH]cn1)NC(=O)[C@@H](NC(=O)[C@H](CC(C)C)NC(=O)[C@H](C)NC(=O)[C@H](C)NC(=O)[C@H](CCCCN)NC(=O)CNC(=O)[C@@H](NC(=O)[C@H](Cc1c[nH]cn1)NC(=O)[C@H](CCCCN)NC(=O)CNC(=O)[C@@H](NC(=O)[C@H](Cc1c[nH]cn1)NC(=O)[C@H](C)NC(=O)[C@H](C)NC(=O)[C@H](CCCCN)NC(=O)[C@H](CCCCN)NC(=O)[C@H](Cc1ccccc1)NC(=O)[C@H](Cc1ccccc1)NC(=O)[C@H](CO)NC(=O)CNC(=O)[C@H](Cc1c[nH]c2ccccc12)NC(=O)CNC(=O)[C@@H](N)CSC1CC(=O)N(CC2CCC(C(=O)N(C)[C@H](CC(C)C)C(=O)N[C@H]3C(=O)N[C@@H](CC(N)=O)C(=O)N[C@H]4C(=O)N[C@H]5C(=O)N[C@H](C(=O)N[C@H](C(=O)O)c6cc(O)cc(O)c6-c6cc5ccc6O)[C@H](O)c5ccc(c(Cl)c5)Oc5cc4cc(c5O[C@@H]4O[C@H](CO)[C@@H](O)[C@H](O)[C@H]4O[C@H]4C[C@](C)(N)[C@H](O)[C@H](C)O4)Oc4ccc(cc4Cl)[C@H]3O)CC2)C1=O)C(C)C)C(C)C)[C@@H](C)O)C(N)=O` (some centres unmarked) [Vm-Ple]?
A: MIC (VRSA 11; VRSA 11, MH broth, 37 °C, 18 h, OD600): 9.38(2.10) µg mL^−1; MIC (S. aureus 15192; S. aureus 15192, MH broth, 37 °C, 18 h, OD600): 2.34(0.52) µg mL^−1; MIC (VRSA 52; VRSA 52, MH broth, 37 °C, 18 h, OD600): 9.38(2.10) µg mL^−1; MIC (S. aureus ATCC29213; S. aureus ATCC29213, MH broth, 37 °C, 18 h, OD600): 4.69(1.05) µg mL^−1; MIC (P. aeruginosa ATCC27853; P. aeruginosa ATCC27853, MH broth, 37 °C, 18 h, OD600): >100(>22.33) µg mL^−1; MIC (S. aureus 15772; S. aureus 15772, MH broth, 37 °C, 18 h, OD600): 2.34(0.52) µg mL^−1; MIC (S. typhimurium ATCC14028; S. typhimurium ATCC14028, MH broth, 37 °C, 18 h, OD600): 75(16.75) µg mL^−1; MIC (E. faecalis ATCC29212; E. faecalis ATCC29212, MH broth, 37 °C, 18 h, OD600): 18.75(4.19) µg mL^−1; MIC (S. aureus CMCC26003; S. aureus CMCC26003, MH broth, 37 °C, 18 h, OD600): 0.78(0.17) µg mL^−1; MIC (MRSA ATCC43300; MRSA ATCC43300, MH broth, 37 °C, 18 h, OD600): 4.69(1.05) µg mL^−1; MIC (K. pneumoniae 9883; K. pneumoniae 9883, MH broth, 37 °C, 18 h, OD600): 37.5(8.37) µg mL^−1; MIC (E. coli ATCC25922; E. coli ATCC25922, MH broth, 37 °C, 18 h, OD600): 4.69(1.05) µg mL^−1; MIC (A. baumannii ATCC19606; A. baumannii ATCC19606, MH broth, 37 °C, 18 h, OD600): 2.34(0.52) µg mL^−1

Q: Which MIC (VRSA 11; 11, 18 h) does the source give for “GWGSFFKKAAHVGKHVGKAALTHYL-NH2 [Pleurecidin]” here?
A: The MIC was 4.69(1.73) µg mL^−1.

Q: What about the MIC (S. aureus 15192; 15192, 18 h) of the same molecule?
A: The MIC was 9.38(3.46) µg mL^−1.

Q: What about the MIC (VRSA 52; 52, 18 h) of the same molecule?
A: The MIC was 9.38(3.46) µg mL^−1.

Q: And the MIC (S. aureus ATCC29213; ATCC29213, 18 h)?
A: The MIC was 9.38(3.46) µg mL^−1.

Q: What about the MIC (P. aeruginosa ATCC27853; ATCC27853, 18 h) of the same molecule?
A: The MIC was 9.38(3.46) µg mL^−1.

Q: What about the MIC (S. aureus 15772; 15772, 18 h) of the same molecule?
A: The MIC was 9.38(3.46) µg mL^−1.

Q: What about the MIC (S. typhimurium ATCC14028; ATCC14028, 18 h) of the same molecule?
A: The MIC was 18.75(6.92) µg mL^−1.

Q: What about the MIC (E. faecalis ATCC29212; ATCC29212, 18 h) of the same molecule?
A: Its MIC is 4.69(1.73) µg mL^−1.

Q: And the MIC (S. aureus CMCC26003; CMCC26003, 18 h)?
A: Its MIC is 1.17(0.43) µg mL^−1.

Q: And the MIC (MRSA ATCC43300; ATCC43300, 18 h)?
A: Its MIC is 2.34(0.86) µg mL^−1.

Q: What about the MIC (K. pneumoniae 9883; 9883, 18 h) of the same molecule?
A: The MIC was 4.69(1.73) µg mL^−1.

Q: What about the MIC (E. coli ATCC25922; ATCC25922, 18 h) of the same molecule?
A: Its MIC is 2.34(0.86) µg mL^−1.

Q: And the MIC (A. baumannii ATCC19606; ATCC19606, 18 h)?
A: Its MIC is 9.38(3.46) µg mL^−1.

Q: With RRIRPRPPRLPRPRPRP [Bac-7] as the molecule, how does the MIC (VRSA 11; 11, 18 h) read?
A: The MIC was 75(34.53) µg mL^−1.

Q: What about the MIC (S. aureus 15192; 15192, 18 h) of the same molecule?
A: The MIC was 75(34.53) µg mL^−1.

Q: What about the MIC (VRSA 52; 52, 18 h) of the same molecule?
A: Its MIC is 75(34.53) µg mL^−1.

Q: And the MIC (S. aureus ATCC29213; ATCC29213, 18 h)?
A: Its MIC is >100(>46.0) µg mL^−1.

Q: What about the MIC (P. aeruginosa ATCC27853; ATCC27853, 18 h) of the same molecule?
A: The MIC was >100(>46.0) µg mL^−1.

Q: And the MIC (S. aureus 15772; 15772, 18 h)?
A: Its MIC is 75(34.53) µg mL^−1.

Q: What about the MIC (S. typhimurium ATCC14028; ATCC14028, 18 h) of the same molecule?
A: The MIC was 75(34.53) µg mL^−1.

Q: What about the MIC (E. faecalis ATCC29212; ATCC29212, 18 h) of the same molecule?
A: Its MIC is 18.75(8.63) µg mL^−1.

Q: And the MIC (S. aureus CMCC26003; CMCC26003, 18 h)?
A: Its MIC is 37.5(17.27) µg mL^−1.

Q: And the MIC (MRSA ATCC43300; ATCC43300, 18 h)?
A: Its MIC is 9.38(4.32) µg mL^−1.

Q: What about the MIC (K. pneumoniae 9883; 9883, 18 h) of the same molecule?
A: The MIC was 9.38(4.32) µg mL^−1.

Q: And the MIC (E. coli ATCC25922; ATCC25922, 18 h)?
A: The MIC was 18.75(8.63) µg mL^−1.

Q: And the MIC (A. baumannii ATCC19606; ATCC19606, 18 h)?
A: Its MIC is >100(>46.0) µg mL^−1.

— PMC12931196, “Vm–MSI: a Vancomycin–Antimicrobial Peptide Conjugate Combating Resistant Bacteria and Broadening the Antimicrobial Spectrum” (Advanced Science, 2025)
